Experimental data: patent US11020395B2, “Cycloalkyl substituted triazole compounds as agonists of the APJ receptor” (AMGEN INC., priority 2016, dated 2021)

Biological target: human APJ receptor (Homo sapiens (Human), UniProt P35414)
Assay: [35S]GTPγS binding assay on membranes from CHO cells stably expressing human APJ receptor
Assay type: biochemical
Details: [35S]GTPγS SPA, read-out: Activity hAPJ SPA EC50 IP
In short: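 Membranes from CHO cells stably expressing FLAG-tagged human APJ were incubated with [35S]GTPγS in buffer with optimized GDP, MgCl2 and NaCl, 90 min at RT. EC50 values derived by non-linear regression, averaged over several independent experiments.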

human APJ receptor, sequence (P35414 whole entry): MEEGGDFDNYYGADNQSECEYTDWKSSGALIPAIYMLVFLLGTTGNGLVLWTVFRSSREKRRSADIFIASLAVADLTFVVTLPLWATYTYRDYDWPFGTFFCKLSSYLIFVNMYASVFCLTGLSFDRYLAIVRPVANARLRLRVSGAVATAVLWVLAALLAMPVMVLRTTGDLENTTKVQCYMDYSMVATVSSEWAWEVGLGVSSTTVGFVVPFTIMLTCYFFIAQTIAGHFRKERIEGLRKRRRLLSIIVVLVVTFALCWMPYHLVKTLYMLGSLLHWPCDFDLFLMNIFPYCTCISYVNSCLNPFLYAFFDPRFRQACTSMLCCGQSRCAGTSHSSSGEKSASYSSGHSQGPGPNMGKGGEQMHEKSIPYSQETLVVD

| Compound | EC50 |
| --- | --- |
| COc1cccc(OC)c1-n1c(NS(=O)(=O)[C@@H](C)[C@H](OC)c2ncc(Cl)cn2)nnc1[C@@H]1CC[C@H]1C (single isomer, unassigned) [Example 208.0] | 2.7 nM |
| COCC(COC)n1c(NS(=O)(=O)[C@@H](C)[C@H](OC)c2ncc(Cl)cn2)nnc1C1CCC1 [Example 95.0, (1R,2S)-1-(5-chloropyrimidin-2-yl)-N-(5-cyclobutyl-4-(1,3-dimethoxypropan-2-yl)-4H-1,2,4-triazol-3-yl)-1-methoxypropane-2-sulfonamide] | 43 nM |
| CO[C@H](c1ncc(Cl)cn1)[C@H](C)S(=O)(=O)Nc1nnc(C2CCC2)n1C(C)C [Example 128.0] | 330 nM |
| COc1ncnc(OC)c1-n1c(NS(=O)(=O)[C@@H](C)[C@H](C)c2ncc(C)cn2)nnc1C1CC2(CC2)C1 [Example 202.0] | 4.2 nM |
| (1R,2S)-1-(5-chloropyrimidin-2-yl)-N-(4-(4,6-dimethoxypyrimidin-5-yl)-5-((R)-6-oxaspiro[2.5]octan-1-yl)-4H-1,2,4-triazol-3-yl)-1-methoxypropane-2-sulfonamide or (1R,2S)-1-(5-chloropyrimidin-2-yl)-N-(4-(4,6-dimethoxypyrimidin-5-yl)-5-((S)-6-oxaspiro[2.5]octan-1-yl)-4H-1,2,4-triazol-3-yl)-1-methoxypropane-2-sulfonamide [Example 102.0] | 160 nM |
| COc1cccc(OC)c1-n1c(NS(=O)(=O)[C@@H](C)[C@H](OC)c2ncc(C)cn2)nnc1C1CCC1 [Example 141.0] | 33 nM |
| COc1ncnc(OC)c1-n1c(NS(=O)(=O)[C@@H](C)[C@H](OC)c2ncc(Cl)cn2)nnc1C1CCCCC1 [Example 6.0, (1R,2S)-1-(5-chloro-2-pyrimidinyl)-N-(5-cyclohexyl-4-(4,6-dimethoxy-5-pyrimidinyl)-4H-1,2,4-triazol-3-yl)-1-methoxy-2-propanesulfonamide] | 7.5 nM |
| COc1ncnc(OC)c1-n1c(NS(=O)(=O)[C@@H](C)[C@H](OC)c2ncc(Cl)cn2)nnc1[C@H]1CC[C@@H]1F (single isomer, unassigned) [Example 181.0, (1R,2S)-1-(5-chloropyrimidin-2-yl)-N-(4-(4,6-dimethoxypyrimidin-5-yl)-5-((1R,2S)-2-fluorocyclobutyl)-4H-1,2,4-triazol-3-yl)-1-methoxypropane-2-sulfonamide or (1R,2S)-1-(5-chloropyrimidin-2-yl)-N-(4-(4,6-dimethoxypyrimidin-5-yl)-5-((1S,2R)-2-fluorocyclobutyl)-4H-1,2,4-triazol-3-yl)-1-methoxypropane-2-sulfonamide] | 32 nM |
| COc1cccc(OC)c1-n1c(NS(=O)(=O)[C@@H](C)[C@H](OC)c2ncc(Cl)cn2)nnc1[C@H]1C[C@H](C(F)(F)F)C1 (single isomer, unassigned) [Example 149.0, (1R,2S)-1-(5-chloropyrimidin-2-yl)-N-(4-(2,6-dimethoxyphenyl)-5-((1r,3S)-3-(trifluoromethyl)cyclobutyl)-4H-1,2,4-triazol-3-yl)-1-methoxypropane-2-sulfonamide or (1R,2S)-1-(5-chloropyrimidin-2-yl)-N-(4-(2,6-dimethoxyphenyl)-5-((1s,3R)-3-(trifluoromethyl)cyclobutyl)-4H-1,2,4-triazol-3-yl)-1-methoxypropane-2-sulfonamide] | 4.2 nM |
| COc1ncnc(OC)c1-n1c(NS(=O)(=O)[C@@H](C)[C@H](OC)c2ncc(C)cn2)nnc1C1CCC1 [Example 90.0, (1R,2S)-N-(5-cyclobutyl-4-(4,6-dimethoxypyrimidin-5-yl)-4H-1,2,4-triazol-3-yl)-1-methoxy-1-(5-methylpyrimidin-2-yl)propane-2-sulfonamide] | 9.2 nM |
